Numbers after ± are expanded uncertainties.

The conditions of the series: 101.33 kPa, Liquid, Vibrating tube method.

Regarding `O` [water], the mass density (usually mass per unit of volume) by setting is: (323.15 K) 988.035 ± 1 kg/m3; (328.15 K) 985.693 ± 1 kg/m3; (333.15 K) 983.196 ± 0.98 kg/m3; (338.15 K) 980.551 ± 0.98 kg/m3; (343.15 K) 977.765 ± 0.98 kg/m3.

The values are drawn from the NIST ThermoML archive (doi:10.1021/acs.jced.8b00513).
